Each block holds one compound with its values, some of them ahead of it.
Assays:
Format in all cases: in vivo, SD rats
[1] = Molsidomine concentration in plasma after transdermal application (HPLC)
Procedure: The above transdermal therapeutic composition was put on a clipped abdomen of male SD rats (7-week-old, 240 to 270 g, 5 heads) and fixed with a surgical tape. After 1, 2, 4, 6 and 24 hours, the blood was collected from the tail vein, and the concentration of molsidomine in the plasma was determined by HPLC.
On the other hand, 0.5 g of molsidomine was dissolved in 3 g of propylene glycol, and 0.35 g of the solution was absorbed into a rayon web of nonwoven fabric and applied to SD rats in the same manner as mentioned above.

[2] = TRH concentration in plasma after transdermal application (radioimmunoassay); conditions: for concentration at 0.5 h: 0.5 h after administration; for concentration at 1 h: 1 h after administration; for concentration at 2 h: 2 h after administration; for concentration at 4 h: 4 h after administration; for concentration at 6 h: 6 h after administration
Procedure: The above transdermal therapeutic composition was put on a clipped abdomen of male SD rats (7-week-old, 240 to 270 g, 4 heads) and fixed with a surgical tape. After 0.5, 1, 2, 4, 6 and 24 hours, the blood was collected from the tail vein. After the blood was treated with heparin, 50 μl of a reagent (aqueous solution containing 0.01 g/l of 8-hydroxyquinoline sulfate, 0.15 g/l of EDTA-2Na and 0.05 g/l of Tween 20) was added to 0.5 ml of the blood to separate the plasma. The TRH concentration in the plasma was determined by the below-mentioned radioimmunoassay. To 100 μl of the separated plasma were added 100 μl of 0.7% bovine serum albumin, 100 μl of anti-TRH antibody (500-fold dilution) and 100 μl of ^125 I-labeled TRH (about 10000 dpm), and the resulting mixture was incubated at 4° C. for 3 days. The secondary antibody (100 μl of anti-γ-globulin serum and 100 μl of normal rabbit serum) was then added, and the mixture was incubated at 4° C. for 1 day. The supernatant was removed by centrifugation at 3000 rpm, and the radioactivity of the precipitate was determined by a γ counter.
On the other hand, 10% polyvinyl alcohol gel (pH 4, buffered with 0.01M citric acid-0.01M disodium phosphate) containing 2% TRH was formulated to make the diameter and thickness 3.2 cm and 0.1 cm respectively (sticking area: 8 cm^2; TRH content: 16 mg), and applied to SD rats (4 heads) in the same manner as mentioned above. The TRH concentration in the plasma was determined by the radioimmunoassay in the same manner as mentioned above.

[3] = system: hypertensive reaction induced by angiotensin I; experiment: Transdermal absorption test: inhibition of hypertensive reaction induced by angiotensin I in rats
Procedure: Using 9-week-old male SD rats, the transdermal therapeutic tape (6 mg as compound (I)/rat) was applied to a clipped area (6 cm^2) of the abdominal skin and the area of exposure was covered by the occluded dressing method. The transdermal absorption effect was evaluated daily by monitoring the inhibition rate (%) against hypertensive reaction induced by angiotensin I. Angiotensin I was administered in an intravenous dose of 300 ng/kg (rats).
Using 9-week-old male SD rats, the transdermal therapeutic tape (9 mg as compound (I)/rat) was applied to a clipped area (6 cm^2) of the abdominal skin and the area of exposure was covered by the occluded dressing method.

[4] = Vinpocetine concentration in plasma after transdermal application (HPLC)
Procedure: The above transdermal therapeutic composition was put on a clipped abdomen of male SD rats (7-week-old, 240 to 270 g, 4 heads) and fixed with a surgical tape. Just before the administration and after 0.5, 1, 2, 4, 6 and 24 hours, the blood was collected from the tail vein. After the blood was treated with heparin, the plasma was separated. The concentration of vinpocetine in the plasma was determined by HPLC after the plasma was cleaned up by Sep-Pak C18 (Waters).
On the other hand, 0.35 g of 4% aqueous suspension of vinpocetine was absorbed into a web of nonwoven fabric and applied to SD rats in the same manner as mentioned above.

[5] = rat, plasma, topical or ocular, Example 6 composition
[6] = rat, plasma, topical or ocular, comparison: 10% polyvinyl alcohol gel pH 4, 2% TRH (16 mg), 8 cm^2
[7] = Example 1 tape, 6 mg as compound (I)/rat
[8] = Example 2 tape, procedure of Example 1
[9] = Example 3 tape, procedure of Example 1
[10] = Example 4 tape, 9 mg as compound (I)/rat

concentration of molsidomine in the plasma ([1]; comparison: solution of 0.5 g molsidomine in 3 g propylene glycol, 0.35 g on nonwoven fabric): below the detection limit
concentration at 1 h ([1]; rat, plasma, topical or ocular, Example 5 composition, 1 h after administration): 123 ng/mL
concentration at 2 h ([1]; rat, plasma, topical or ocular, Example 5 composition, 2 h after administration): 235 ng/mL
concentration at 4 h ([1]; rat, plasma, topical or ocular, Example 5 composition, 4 h after administration): 451 ng/mL
concentration at 6 h ([1]; rat, plasma, topical or ocular, Example 5 composition, 6 h after administration): 322 ng/mL
concentration at 24 h ([1]; rat, plasma, topical or ocular, Example 5 composition, 24 h after administration): 169 ng/mL
Structure (SMILES): CCOC(=O)[N-]c1cn(N2CCOCC2)n[o+]1 [molsidomine, N-ethoxycarbonyl-3-morpholinosydnonimine]
concentration of molsidomine in the blood (in words) ([1]; Example 5 composition): a high concentration of molsidomine in the blood was observed

Structure (SMILES): NC(=O)[C@@H]1CCCN1C(=O)[C@H](Cc1cnc[nH]1)NC(=O)[C@@H]1CCC(=O)N1 [TRH, L-pyroglutamyl-L-histidyl-L-prolinamide]
TRH concentration in the plasma (in words) ([2]; Example 6 composition): rapidly increased
TRH concentration in the plasma (in words) ([2]; comparison: 10% polyvinyl alcohol gel pH 4, 2% TRH (16 mg), 8 cm^2): very low
concentration at 0.5 h [2, 5]: 59 ng/mL
concentration at 1 h [2, 5]: 88.9 ng/mL
concentration at 2 h [2, 5]: 110 ng/mL
concentration at 4 h [2, 5]: 391 ng/mL
concentration at 6 h [2, 5]: 326 ng/mL
concentration at 24 h ([2]; rat, plasma, topical or ocular, Example 6 composition, 24 h after administration): 82.4 ng/mL
Cmax ([2]; rat, plasma, topical or ocular, Example 6 composition, read-out: maximum concentration in the plasma): ~400 ng/mL
Tmax ([2]; rat, plasma, topical or ocular, Example 6 composition, read-out: time of maximum concentration in the plasma): 4 h
concentration at 0.5 h [2, 6]: 8.3 ng/mL
concentration at 1 h [2, 6]: 8 ng/mL
concentration at 2 h [2, 6]: 4.5 ng/mL
concentration at 4 h [2, 6]: 3 ng/mL
concentration at 6 h [2, 6]: 1.8 ng/mL

transdermal absorption [3, 7]: sufficiently absorbed transdermally
transdermal absorption [3, 8]: sufficiently absorbed transdermally
transdermal absorption [3, 9]: sufficiently absorbed transdermally
transdermal absorption [3, 10]: sufficiently absorbed transdermally
Structure (SMILES): O=C(O)CN1C(=O)[C@@H](N[C@@H](CCCCC2CCNCC2)C(=O)O)CSc2ccccc21 [Compound (I), (R)-3-[(S)-1-carboxy-5-(4-piperidyl)pentyl]amino-4-oxo-2,3,4,5-tetrahydro-1,5-benzothiazepine-5-acetic acid]
duration of effect (inhibition of hypertensive reactivity induced by angiotensin I) [3, 7]: > 24 h
initiation time of 80% inhibition against hypertensive reactivity induced by angiotensin I ([3]; Example 1 tape, 6 mg as compound (I)/rat, abdominal skin 6 cm^2, angiotensin I 300 ng/kg i.v.): five
inhibition against hypertensive reactivity induced by angiotensin I ([3]; Example 1 tape, 6 mg as compound (I)/rat, five hours after administration): 80%
duration of effect (inhibition of hypertensive reaction by angiotensin I) [3, 8]: > 24 h
initiation time of 80% inhibition against hypertensive reaction by angiotensin I [3, 8]: three
inhibition against hypertensive reaction by angiotensin I ([3]; Example 2 tape, three hours after administration): 80%
inhibition against hypertensive reaction by angiotensin I ([3]; Example 3 tape, five hours after administration): 80%
duration of effect (inhibition of hypertensive reaction by angiotensin I) [3, 9]: > 24 h
initiation time of 80% inhibition against hypertensive reaction by angiotensin I [3, 9]: five
duration of effect (inhibition of hypertensive reactivity by angiotensin I) [3, 10]: > 24 h
initiation time of 80% inhibition against hypertensive reactivity by angiotensin I ([3]; Example 4 tape, 9 mg as compound (I)/rat, abdominal skin 6 cm^2): five
inhibition against hypertensive reactivity by angiotensin I ([3]; Example 4 tape, 9 mg as compound (I)/rat, five hours after administration): 80%

Average concentration in plasma ([4]; Example 7 composition, just before administration): 0 ng/mL
concentration of vinpocetine in the plasma ([4]; comparison: 0.35 g of 4% aqueous suspension of vinpocetine on nonwoven fabric): below the detection limit
concentration at 0.5 h ([4]; rat, plasma, topical or ocular, Example 7 composition, 0.5 h after administration): 149 ng/mL
concentration at 1 h ([4]; rat, plasma, topical or ocular, Example 7 composition, 1 h after administration): 155 ng/mL
concentration at 2 h ([4]; rat, plasma, topical or ocular, Example 7 composition, 2 h after administration): 80.1 ng/mL
concentration at 4 h ([4]; rat, plasma, topical or ocular, Example 7 composition, 4 h after administration): 60.7 ng/mL
concentration at 6 h ([4]; rat, plasma, topical or ocular, Example 7 composition, 6 h after administration): 74.1 ng/mL
concentration at 24 h ([4]; rat, plasma, topical or ocular, Example 7 composition, 24 h after administration): 64.3 ng/mL
Structure (SMILES): CCOC(=O)C1=C[C@]2(CC)CCCN3CCc4c(n1c1ccccc41)[C@@H]32 [vinpocetine, apovincamic acid ethyl ester]
concentration of vinpocetine in the plasma (in words) ([4]; Example 7 composition): rapidly increased, and the required concentration was maintained during a period of 24 hours

Source: US5362497A, “Transdermal therapeutic composition” (priority 1989, dated 1994)
